Active and inactive are the calls of the source. The calls are words filed in the database; no cut-off is given here.

These results are taken from ChEMBL document CHEMBL6178013, “Ferroptosis of Cancer Cells via Tubulin Degradation and Mitochondrial Dysfunction: A Novel Mechanism of Anticancer Effect for Small-Molecule Anion Transporters” (J Med Chem, 2025).

The test system of series [1] is Chloride. Nature of the series: Binding affinity to chloride anions in human HeLa cells assessed as decrease in orange fluorescence in cytoplasm at 5 uM incubated for 6 hrs by AO staining based analysis relative to control. Type of series: cell-based. On the set-up: scale not given: the % may be the effect or the level left.
Series [2] deals with Chloride. Nature of the series: Binding affinity to chloride anions assessed as anionophoric activity in egg-yolk L-alpha-phosphatidylcholine liposome model measured per lipid by pyranine-based fluorescent assay.
Another series has as its system Liposome. Nature of the series: Disruption of egg-yolk L-alpha-phosphatidylcholine liposome model membrane assessed as calcein leakage by fluorescence based assay. Format: subcellular.
Series [3] deals with Chloride. Nature of the series: Binding affinity to chloride anions in human HeLa cells assessed as increase in green fluorescence in cytoplasm at 5 uM incubated for 6 hrs by AO staining based analysis. Format: cell-based.
In a further series the test system is HepG2. Nature of the series: Cytotoxicity against human HepG2 cells incubated for 48 hrs by MTT assay. Type of series: functional, cell-based. Conditions: HepG2, 48 h. For orientation: Formazan colour is commonly taken as a measure of viable cells.
The target in series [4] is Chloride. Nature of the series: Binding affinity to chloride anions assessed as chloride efflux in egg-yolk L-alpha-phosphatidylcholine liposome model measured per lipid in presence of intravesicular NaCl/extravesicular NaNO3 by chloride ion selective electrode technique.
Another series concerns MCF7. Nature of the series: Cytotoxicity against human MCF7 cells incubated for 48 hrs by MTT assay. Format: functional, cell-based. Conditions: MCF7, 48 h.
The subject of series [5] is Chloride. Nature of the series: Binding affinity to chloride anions assessed as transport of chloride anions across bulky nitrobenzene membrane in U-shaped tube harboring NaCl in donor phase and NaNO3 in receiving phase at 1 mM measured for 12 hrs by chloride ion selective electrode technique.
The next series relates to A549. Nature of the series: Cytotoxicity against human A549 cells incubated for 48 hrs by MTT assay. Type of series: functional, cell-based. Conditions: A549, 48 h.
In series [6] the test system is HeLa. Nature of the series: Cytotoxicity against human HeLa cells incubated for 48 hrs by MTT assay. Type of series: functional, cell-based.
For series [7], the system named is Chloride. Nature of the series: Binding affinity to chloride anions using tetrabutylammonium chloride salt assessed as association constant by 1H NMR spectroscopy.
The subject of series [8] is Chloride. Nature of the series: Binding affinity to chloride anions assessed as fold increase in anionophoric activity in egg-yolk L-alpha-phosphatidylcholine liposome model measured per lipid by pyranine-based fluorescent assay relative to m-Bimbe.
The subject of series [9] is Chloride. Nature of the series: Binding affinity to chloride anions in human HeLa cells assessed as chloride influx up to 5 uM incubated for 2 hrs by MQAE staining based analysis. Type of series: cell-based.
The test system of series [10] is Chloride. Nature of the series: Binding affinity to chloride anions in human HeLa cells assessed as decrease in red fluorescence in cytoplasm at 5 uM incubated for 1.5 hrs by MR-(RR)2 staining based analysis. Type of series: cell-based.
Series [11] has as its system HeLa. Nature of the series: Antitumor activity against human HeLa cells xenografted in male Balb/C nude mouse assessed as average tumor size at 2 mg/kg, ip administered on every 2 days measured after 18 days (reference value: 1995.1 mm3). Type of series: functional. The settings on record: time 18 day. Background: Xenograft models place foreign cells or tissue in a host animal.

A short description of series [12]: Toxicity in male Balb/C nude mouse xenografted with human HeLa cells assessed as body weight change at […], ip administered on every 2 days measured after 18 days. Format: organism-based. Conditions: in vivo, 432 h, time 18 day.

As for `FC(F)(F)c1ccc2nc(-c3cccc(-c4nc5ccc(C(F)(F)F)cc5[nH]4)c3)[nH]c2c1`, the Activity entry in the series on Chloride [1] and in the series on Chloride [3] was “Not active; Only Slight Activity Was Observed” each time. For the same compound, the results for the EC50 at Chloride [2] and on Chloride [4] were 9.67 mol% and over 10 mol%, respectively. Further, the result in the series on Liposome was inactive. Besides, the half-maximal inhibitory concentration (IC50) (commonly the concentration at which inhibition is half-maximal) is 10.6 µM in the series on HepG2, 10.5 µM with MCF7, 12.8 µM in the series with A549 and 12.3 µM with HeLa [6]. In addition, the result with Chloride [5] was Active. In addition, the Ka in the series with Chloride [7] is 3.51 10^3/M.

For `Fc1cc2nc(-c3cccc(-c4nc5cc(F)c(C(F)(F)F)cc5[nH]4)c3)[nH]c2cc1C(F)(F)F`, the Activity result with Chloride [1] and in the series with Chloride [3] was “Active; The Result Indicates That Compound Basify Acidic Organelles” throughout. Also, the EC50 on Chloride [2] stood at 0.64 mol%; on Chloride [4], 4.11 mol%. Also, in the series with Liposome, the result was inactive. For the same compound, the IC50 came out at 11.2 µM with HepG2, 11.2 µM in the series with MCF7, 28.8 µM in the series on A549 and 18.3 µM in the series with HeLa [6]. The outcome with Chloride [5] was Active. Also, in the series on Chloride [8], the fold change (FC) was 15.1. In addition, the Ka in the series with Chloride [7] is 6.96 10^3/M.

For the compound `O=[N+]([O-])c1cc(-c2nc3cc(F)c(C(F)(F)F)cc3[nH]2)cc(-c2nc3cc(F)c(C(F)(F)F)cc3[nH]2)c1`, the Activity was 100% with Chloride [1], “Active; The Result Indicates That Compound Basify Acidic Organelles” in the series with Chloride [3] and “Active; The Result Reveals That Compound Can Alkalize Lysosomes” in the series on Chloride [10]. The outcome in the series with Chloride [9] and in the series with Chloride [5] was Active. Moreover, the values for the EC50 at Chloride [2] and at Chloride [4] were 2.37 10^-2mol% and 0.11 mol%, respectively. Also, in the series on Liposome, the outcome was inactive. The IC50 is 2.2 µM with HepG2, 3.4 µM in the series with MCF7, 10.2 µM in the series with A549 and 4.23 µM in the series with HeLa [6]. Moreover, the fold change (FC) in the series on Chloride [8] is 4.08 10^2No_unit. Also, the Ka in the series with Chloride [7] is 4.95 10^3/M.

For the compound `O=[N+]([O-])c1cc(-c2nc3ccc(C(F)(F)F)cc3[nH]2)cc(-c2nc3ccc(C(F)(F)F)cc3[nH]2)c1`, the Activity entry is recorded as “Active; The Result Indicates That Compound Basify Acidic Organelles” in the series on Chloride [1], “Active; The Result Indicates That Compound Basify Acidic Organelles” in the series on Chloride [3] and “Active; The Result Reveals That Compound Can Alkalize Lysosomes” with Chloride [10]. Also, the outcome with Chloride [9] and in the series with Chloride [5] was Active. The EC50 on Chloride [2] is 2 10^-3mol%; on Chloride [4], 0.3 mol%. Also, the outcome with Liposome was inactive. Further, the IC50 in the series with HepG2 stood at 6.8 µM; in the series with MCF7 it was 8.6 µM; with A549, 7.78 µM; with HeLa [6] it was 8.33 µM. The fold change (FC) in the series with Chloride [8] is 4.84 10^3No_unit. Further, the Ka in the series with Chloride [7] is 5.25 10^3/M.

Take `COc1cccc2c1C(=O)c1c(O)c3c(c(O)c1C2=O)C[C@@](O)(C(=O)CO)C[C@@H]3O[C@H]1C[C@H](N)[C@H](O)[C@H](C)O1` [DOXORUBICIN]: the Activity was 1093.2 mm3 in the series on HeLa [11] and “Toxic” in series [12]. The IC50 turned out to be 2.3 µM with HepG2, 0.26 µM with MCF7 and 0.11 µM in the series on HeLa [6].

Turning to `Fc1cc(-c2nc3cc(F)c(C(F)(F)F)cc3[nH]2)cc(-c2nc3cc(F)c(C(F)(F)F)cc3[nH]2)c1`, the Activity result in the series on Chloride [1] and with Chloride [3] was “Active; The Result Indicates That Compound Basify Acidic Organelles” throughout. For the same compound, the EC50 on Chloride [2] was 3.79 10^-2mol%; on Chloride [4] it was 0.2 mol%. For the same compound, the outcome in the series with Liposome was inactive. Further, the IC50 was 3.13 µM with HepG2, 3.33 µM with MCF7, 3.97 µM in the series with A549 and 3.9 µM in the series with HeLa [6]. In addition, the result in the series with Chloride [5] was Active. For the same compound, in the series with Chloride [8], the fold change (FC) was 2.55 10^2No_unit. Moreover, the Ka with Chloride [7] was 1.01 10^3/M.

Consider `c1cc(-c2nc3ccccc3[nH]2)cc(-c2nc3ccccc3[nH]2)c1`, for which the EC50 on Chloride [2] was 2.76 10^-3mol%; at Chloride [4] it was 0.06 mol%. The fold change (FC) in the series on Chloride [8] was 3.5 10^3No_unit. The Ka with Chloride [7] is 1.45 10^4/M.

Regarding `O=[N+]([O-])c1cc(-c2nc3c(C(F)(F)F)cc(C(F)(F)F)cc3[nH]2)cc(-c2nc3c(C(F)(F)F)cc(C(F)(F)F)cc3[nH]2)c1`, the Activity was 100% in the series with Chloride [1], “Active; The Result Indicates That Compound Basify Acidic Organelles” in the series with Chloride [3] and “Active; The Result Reveals That Compound Can Alkalize Lysosomes” with Chloride [10]. Besides, the result in the series on Chloride [9] and in the series on Chloride [5] was Active. Also, the EC50 is 5.34 10^-3mol% on Chloride [2] and 0.02 mol% at Chloride [4]. Also, the outcome in the series with Liposome was inactive. The IC50 was found to be 16.5 µM in the series on HepG2, 10.8 µM in the series with MCF7, 10.5 µM in the series on A549 and 9.67 µM in the series with HeLa [6]. Moreover, the fold change (FC) with Chloride [8] is 1.81 10^3No_unit. The Ka in the series with Chloride [7] is 6.58 10^3/M.

As to `FC(F)(F)c1cc(C(F)(F)F)c2nc(-c3cccc(-c4nc5c(C(F)(F)F)cc(C(F)(F)F)cc5[nH]4)c3)[nH]c2c1`, the Activity entry is “Active; The Result Indicates That Compound Basify Acidic Organelles” with Chloride [1], “Active; The Result Indicates That Compound Basify Acidic Organelles” with Chloride [3] and “Active; The Result Reveals That Compound Can Alkalize Lysosomes” in the series with Chloride [10]. In addition, the outcome in the series with Chloride [9] and in the series on Chloride [5] was Active. Besides, the EC50 at Chloride [2] is listed as 0.27 mol%; at Chloride [4] it was 1.92 mol%. For the same compound, in the series with Liposome, the result was inactive. For the same compound, the half-maximal inhibitory concentration (IC50) in the series on HepG2 was determined as 8.3 µM; in the series with MCF7, 2.4 µM; in the series with A549, 1.49 µM; in the series on HeLa [6] it was 2.84 µM. Further, in the series with Chloride [8], the fold change (FC) was 35.8. Moreover, the Ka in the series with Chloride [7] is 2.93 10^4/M.

Consider `Fc1cc(-c2nc3ccc(C(F)(F)F)cc3[nH]2)cc(-c2nc3ccc(C(F)(F)F)cc3[nH]2)c1`, for which the Activity entry in the series with Chloride [1] and in the series on Chloride [3] was “Active; The Result Indicates That Compound Basify Acidic Organelles” throughout. In addition, the EC50 at Chloride [2] is 1.54 10^-2mol%; at Chloride [4] it was 0.94 mol%. Further, in the series with Liposome, the outcome was inactive. For the same compound, the half-maximal inhibitory concentration (IC50) in the series with HepG2 was 1.67 µM; in the series with MCF7, 3.17 µM; in the series on A549 it was 4.53 µM; in the series with HeLa [6], 3.53 µM. In the series with Chloride [5], the result was Active. Also, in the series on Chloride [8], the fold change (FC) was 6.28 10^2No_unit. The Ka in the series on Chloride [7] is 1.17 10^4/M.
